According to ChEMBL document CHEMBL3045431, “Stability of DNA upon interaction with dimethyltin dichloride” (Med Chem Res, 2007):
Activity calls are given as the source filed them. The rule behind the calls is not given here.

What was measured:
[1] = Binding affinity to DNA assessed as dissociation constant at < 2 mM by isothermal spectrophotometric titration method
[2] = system: DNA; assay: Binding affinity to Bos taurus (calf) thymus DNA at 9 mM by isothermal spectrophotometric titration method; format: nucleic-acid assay
[3] = system: DNA; assay: Binding affinity to Bos taurus (calf) thymus DNA at 0.5 mM by isothermal spectrophotometric titration method; format: nucleic-acid assay
[4] = system: DNA; assay: Thermal stabilization of Bos taurus (calf) thymus DNA assessed as change in melting temperature at 13.6 mM by differential scanning calometric method; format: nucleic-acid assay
[5] = system: DNA; assay: Binding affinity to Bos taurus (calf) thymus DNA at 11 mM by isothermal spectrophotometric titration method; format: nucleic-acid assay
[6] = system: DNA; assay: Binding affinity to Bos taurus (calf) thymus DNA at 13.6 mM by isothermal spectrophotometric titration method; format: nucleic-acid assay
[7] = system: DNA; assay: Binding affinity to Bos taurus (calf) thymus DNA at 2 mM by isothermal spectrophotometric titration method; format: nucleic-acid assay
[8] = system: DNA; assay: Thermal stabilization of Bos taurus (calf) thymus DNA assessed as change in melting temperature at 2 mM by differential scanning calometric method; format: nucleic-acid assay
[9] = Binding affinity to DNA assessed as association constant at < 2 mM by isothermal spectrophotometric titration method

Row | Kd [1] | K [2] | K [3] | Tm [4] | K [5] | K [6] | K [7] | Activity [8] | Ka [9] | Substance
1 | 281 µM |  |  |  |  |  |  |  |  | DICHLORODIMETHYLSTANNANE
2 |  | 0.123 ×10³ /M | 3.59 ×10³ /M | 70.2 °C | 0.125 ×10³ /M | 0.143 ×10³ /M | 3.53 ×10³ /M | Active | 3.56 ×10³ /M | [sequence]
